Results reported in US20040063662A1, “Selenophene anti-tumor agents” (priority 1996, published 2004).

Columns and labels:
CCRF-CEM = assay: NCI human tumor cell panel: CCRF-CEM (Leukemia); format: cell-based; conditions: Leukemia
MOLT-4 = assay: NCI human tumor cell panel: MOLT-4 (Leukemia); format: cell-based; conditions: MOLT-4, Leukemia
A549/ATCC = assay: NCI human tumor cell panel: A549/ATCC (Non-Small Cell Lung Cancer); format: cell-based; conditions: Non-Small Cell Lung Cancer
HOP-62 = assay: NCI human tumor cell panel: HOP-62 (Non-Small Cell Lung Cancer); format: cell-based; conditions: HOP-62, Non-Small Cell Lung Cancer
NCI-H23 = assay: NCI human tumor cell panel: NCI-H23 (Non-Small Cell Lung Cancer); format: cell-based; conditions: NCI-H23, Non-Small Cell Lung Cancer
NCI-H322M = assay: cells; format: cell-based; conditions: Homo sapiens, Non-Small Cell Lung Cancer
NCI-H460 = assay: NCI human tumor cell panel: NCI-H460 (Non-Small Cell Lung Cancer); format: cell-based; conditions: NCI-H460, Non-Small Cell Lung Cancer
HCT-116 = assay: NCI human tumor cell panel: HCT-116 (Colon Cancer); format: cell-based; conditions: HCT-116, Colon Cancer
HT29 = assay: NCI human tumor cell panel: HT29 (Colon Cancer); format: cell-based; conditions: HT-29, HT29, Colon Cancer
SF-295 = assay: NCI human tumor cell panel: SF-295 (CNS Cancer); format: cell-based; conditions: SF-295, CNS Cancer
SF-539 = assay: NCI human tumor cell panel: SF-539 (CNS Cancer); format: cell-based; conditions: SF-539, CNS Cancer
SNB-19 = assay: NCI human tumor cell panel: SNB-19 (CNS Cancer); format: cell-based; conditions: SNB-19, CNS Cancer
U251 = assay: NCI human tumor cell panel: U251 (CNS Cancer); format: cell-based; conditions: U-251, U251, CNS Cancer
MALME-3M = assay: NCI human tumor cell panel: MALME-3M (Melanoma); format: cell-based; conditions: MALME-3M, Melanoma
M14 = assay: NCI human tumor cell panel: M14 (Melanoma); format: cell-based; conditions: M14, Melanoma
SK-MEL-28 = assay: NCI human tumor cell panel: SK-MEL-28 (Melanoma); format: cell-based; conditions: SK-MEL-28, Melanoma
SK-MEL-5 = assay: NCI human tumor cell panel: SK-MEL-5 (Melanoma); format: cell-based; conditions: SK-MEL-5, Melanoma
UACC-257 = assay: NCI human tumor cell panel: UACC-257 (Melanoma); format: cell-based; conditions: UACC-257, Melanoma
UACC-62 = assay: NCI human tumor cell panel: UACC-62 (Melanoma); format: cell-based; conditions: UACC-62, Melanoma
OVCAR-3 = assay: NCI human tumor cell panel: OVCAR-3 (Ovarian Cancer); format: cell-based; conditions: OVCAR-3, Ovarian Cancer
OVCAR-4 = assay: NCI human tumor cell panel: OVCAR-4 (Ovarian Cancer); format: cell-based; conditions: OVCAR-4, Ovarian Cancer
A498 = assay: NCI human tumor cell panel: A498 (Renal Cancer); format: cell-based; conditions: A498, Renal Cancer
ACHN = assay: NCI human tumor cell panel: ACHN (Renal Cancer); format: cell-based; conditions: Renal Cancer
TK-10 = assay: NCI human tumor cell panel: TK-10 (Renal Cancer); format: cell-based; conditions: TK-10, Renal Cancer
PC-3 = assay: NCI human tumor cell panel: PC-3 (Prostate Cancer); format: cell-based; conditions: PC-3, Prostate Cancer
MCF7 = assay: NCI human tumor cell panel: MCF7 (Breast Cancer); format: cell-based; conditions: MCF7, Breast Cancer
HS 578T = assay: NCI human tumor cell panel: HS 578T (Breast Cancer); format: cell-based; conditions: Breast Cancer
MDA-MB-435 = assay: NCI human tumor cell panel: MDA-MB-435 (Breast Cancer); format: cell-based; conditions: MDA-MB-435, Breast Cancer
MDA-N = assay: NCI human tumor cell panel: MDA-N (Breast Cancer); format: cell-based; conditions: Breast Cancer
HOP-92 = assay: NCI human tumor cell panel: HOP-92 (Non-Small Cell Lung Cancer)
[1] = read-out: Log10 GI50 (converted)
[2] = read-out: Log10 TGI (converted)

SMILES: O=Cc1ccc(-c2ccc(-c3ccc[se]3)[se]2)[se]1 [NSC 675244]
- GI50 (CCRF-CEM; [1]): 2.14 µM
- IC (TGI) (CCRF-CEM; [2]): 7.08 µM
- GI50 (MOLT-4; [1]): 2.4 µM
- IC (TGI) (MOLT-4; [2]): 7.59 µM
- GI50 (A549/ATCC; [1]): 13.5 µM
- IC (TGI) (A549/ATCC; [2]): 26.3 µM
- GI50 (HOP-62; [1]): 12 µM
- IC (TGI) (HOP-62; [2]): 29.5 µM
- GI50 (NCI-H23; [1]): 13.5 µM
- IC (TGI) (NCI-H23; [2]): 30.9 µM
- GI50 (NCI-H322M; [1]): 13.2 µM
- IC (TGI) (NCI-H322M; [2]): 28.2 µM
- GI50 (NCI-H460; [1]): 2.24 µM
- IC (TGI) (NCI-H460; [2]): 16.2 µM
- GI50 (HCT-116; [1]): 0.38 µM
- IC (TGI) (HCT-116; [2]): 13.8 µM
- GI50 (HT29; [1]): 3.24 µM
- IC (TGI) (HT29; [2]): 13.2 µM
- GI50 (SF-295; [1]): 15.1 µM
- IC (TGI) (SF-295; [2]): 28.2 µM
- GI50 (SF-539; [1]): 17 µM
- IC (TGI) (SF-539; [2]): 33.1 µM
- GI50 (SNB-19; [1]): 10.2 µM
- IC (TGI) (SNB-19; [2]): 30.2 µM
- GI50 (U251; [1]): 0.316 µM
- IC (TGI) (U251; [2]): 13.8 µM
- GI50 (MALME-3M; [1]): 12.6 µM
- IC (TGI) (MALME-3M; [2]): 28.2 µM
- GI50 (M14; [1]): 11.5 µM
- IC (TGI) (M14; [2]): 28.8 µM
- GI50 (SK-MEL-28; [1]): 13.2 µM
- IC (TGI) (SK-MEL-28; [2]): 26.9 µM
- GI50 (SK-MEL-5; [1]): 3.39 µM
- IC (TGI) (SK-MEL-5; [2]): 13.8 µM
- GI50 (UACC-257; [1]): 0.309 µM
- IC (TGI) (UACC-257; [2]): 0.851 µM
- GI50 (UACC-62; [1]): 0.0708 µM
- IC (TGI) (UACC-62; [2]): 10.7 µM
- GI50 (OVCAR-3; [1]): 0.282 µM
- IC (TGI) (OVCAR-3; [2]): 7.94 µM
- GI50 (OVCAR-4; [1]): 1.58 µM
- IC (TGI) (OVCAR-4; [2]): 14.8 µM
- GI50 (A498; [1]): 1.41 µM
- IC (TGI) (A498; [2]): 2.95 µM
- GI50 (ACHN; [1]): 10.2 µM
- IC (TGI) (ACHN; [2]): 21.9 µM
- GI50 (TK-10; [1]): 0.288 µM
- IC (TGI) (TK-10; [2]): 0.891 µM
- GI50 (PC-3; [1]): 12 µM
- IC (TGI) (PC-3; [2]): 32.4 µM
- GI50 (MCF7; [1]): 0.479 µM
- IC (TGI) (MCF7; [2]): 11.5 µM
- GI50 (HS 578T; [1]): 7.24 µM
- IC (TGI) (HS 578T; [2]): 21.9 µM
- GI50 (MDA-MB-435; [1]): 10.2 µM
- IC (TGI) (MDA-MB-435; [2]): 33.1 µM
- GI50 (MDA-N; [1]): 4.57 µM
- IC (TGI) (MDA-N; [2]): 19.5 µM
- GI50 (HOP-92; HOP-92, read-out: Log10 GI50 (converted)): 11 µM
- IC (TGI) (HOP-92; HOP-92, read-out: Log10 TGI): 25.7 µM
